Assay: T1 black-blood MRI: percentage change in normalized signal units in CSF and parasagittal dura after intrathecal gadobutrol, cohort of 18 individuals (FIG. 23g-w)
Format: in vivo, human
Text: It has for long been an unanswered question how a molecular substance escapes from the CSF of the craniospinal compartment to the dural lymphatics and further to extracranial lymph nodes in humans. Experimental studies in animals have indicated a role of lymphatic vessels in dura mater, but this has yet to be shown in human subjects. The present invention addresses removal of molecular substances from the craniospinal compartment in humans. Basis for the various aspects of the invention are novel observations made by the inventors regarding transport of indicator fluids from CSF to lymphatic structures in dura. The inventors have provided novel observations using time series of MRI T1 black-blood sequences after intrathecal administration of the MRI contrast agent gadobutrol. […]
FIG. 23o-s illustrate the determination of signal unit ratios, which is particularly useful when measuring indication signals from MRI. Enrichment of indicator fluid is measured as change in T1-BB signal units. […] The enrichment of CSF tracer is quantified as change in signal units (SU) within the regions of interest that are marked by an open circle. The measured signal units were normalized against the reference to correct for any baseline shift of image greyscale between time points. […]

Compound: O=C([O-])CN1CCN(CC(=O)[O-])CCN([C@H](CO)[C@H](O)CO)CCN(CC(=O)[O-])CC1.[Gd+3] (racemic) [gadobutrol]
- Time of peak signal change (normalized T1-BB signal units) (CSF nearby parasagittal dura): 24 h
- Time of peak signal change (normalized T1-BB signal units) (parasagittal dura): 24 h

From US11272841B2, “Indicator fluids, systems, and methods for assessing movement of substances within, to or from a cerebrospinal fluid, brain or spinal cord compartment of a cranio-spinal cavity of a human” (BRAINWIDESOLUTIONS AS, priority 2017, dated 2022)
